Targets include MTOR (human) (UniProt P42345); AURKA (human) (UniProt O14965); TTK (human) (UniProt P33981); MYLK3 (human) (UniProt Q32MK0).
In experiment [1] the test system is AKT2 (human), P31751 [S474D].
Experiment [2] concerns EGFR (human), P00533 [G719C]. Description: KINOMEscan competition binding. The conditions noted are these: compound 10.0 µM.
In experiment [3] the test system is ABL1 (human), P00519 [E255K]. The experiment is described as follows: KINOMEscan competition binding. The conditions noted are these: compound 10.0 µM.
The next experiment deals with PIK3CG (human) (UniProt P48736). Description: KINOMEscan competition binding. The note with it: compound 10.0 µM.
In experiment [4] the test system is ABL1 (human), P00519 [Y253F]. The experiment is described as follows: KINOMEscan competition binding. The note with it: compound 10.0 µM.
In a further experiment the target is MARK2 (human) (UniProt Q7KZI7). Description: KINOMEscan competition binding. The conditions noted are these: compound 10.0 µM.
In experiment [5] the test system is PIK3CA (human), P42336 [H1047Y]. The experiment is described as follows: KINOMEscan competition binding. The note with it: compound 10.0 µM.
Chain of PIK3CA (human), P42336 [H1047Y] (P42336 whole entry H1047Y, looked up): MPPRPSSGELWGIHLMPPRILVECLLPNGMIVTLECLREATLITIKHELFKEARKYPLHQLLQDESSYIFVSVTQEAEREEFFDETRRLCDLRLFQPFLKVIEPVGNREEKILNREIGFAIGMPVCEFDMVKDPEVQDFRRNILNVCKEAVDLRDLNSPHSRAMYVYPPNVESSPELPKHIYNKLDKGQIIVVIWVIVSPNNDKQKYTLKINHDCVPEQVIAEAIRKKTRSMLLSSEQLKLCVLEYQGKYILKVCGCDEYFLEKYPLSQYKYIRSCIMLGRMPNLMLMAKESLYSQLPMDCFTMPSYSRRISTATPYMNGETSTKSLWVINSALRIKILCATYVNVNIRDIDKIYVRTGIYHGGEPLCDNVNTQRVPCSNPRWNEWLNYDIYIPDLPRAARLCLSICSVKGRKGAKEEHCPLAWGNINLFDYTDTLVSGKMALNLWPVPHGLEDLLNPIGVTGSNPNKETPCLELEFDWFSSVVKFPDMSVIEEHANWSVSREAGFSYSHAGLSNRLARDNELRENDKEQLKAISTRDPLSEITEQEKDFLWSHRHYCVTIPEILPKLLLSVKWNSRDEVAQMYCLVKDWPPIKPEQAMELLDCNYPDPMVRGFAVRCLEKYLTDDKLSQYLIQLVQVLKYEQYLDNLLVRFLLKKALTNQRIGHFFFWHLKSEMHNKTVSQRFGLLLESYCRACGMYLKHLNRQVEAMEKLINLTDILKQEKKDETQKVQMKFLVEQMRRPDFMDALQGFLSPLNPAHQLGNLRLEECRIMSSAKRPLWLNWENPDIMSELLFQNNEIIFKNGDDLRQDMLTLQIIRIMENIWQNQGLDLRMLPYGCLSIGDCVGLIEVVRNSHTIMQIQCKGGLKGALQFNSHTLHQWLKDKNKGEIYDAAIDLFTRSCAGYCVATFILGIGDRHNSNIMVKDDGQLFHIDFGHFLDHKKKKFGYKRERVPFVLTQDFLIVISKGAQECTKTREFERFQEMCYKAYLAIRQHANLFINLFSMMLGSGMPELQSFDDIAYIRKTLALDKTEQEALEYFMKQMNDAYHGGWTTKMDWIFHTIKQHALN
The next experiment addresses PIK3CA (human) (UniProt P42336). Description: KINOMEscan competition binding. The note with it: compound 10.0 µM.
In experiment [6] the test system is EGFR (human), P00533 [746-750 del]. Description: KINOMEscan competition binding. The conditions noted are these: compound 10.0 µM.
Experiment [7] concerns EGFR (human), P00533 [G719S]. The experiment is described as follows: KINOMEscan competition binding. The note with it: compound 10.0 µM.
Experiment [8] deals with EGFR (human), P00533 [L861Q]. Description: KINOMEscan competition binding. The conditions noted are these: compound 10.0 µM.
In experiment [9] the test system is EGFR (human), P00533 [P753S; 747-752 del]. The experiment is described as follows: KINOMEscan competition binding. The conditions noted are these: compound 10.0 µM.
The test system of experiment [10] is KIT (human), P10721 [V559D/V654A]. The experiment is described as follows: KINOMEscan competition binding. The conditions noted are these: compound 10.0 µM.
Chain of KIT (human), P10721 [V559D/V654A] (P10721 whole entry V559D/V654A, looked up): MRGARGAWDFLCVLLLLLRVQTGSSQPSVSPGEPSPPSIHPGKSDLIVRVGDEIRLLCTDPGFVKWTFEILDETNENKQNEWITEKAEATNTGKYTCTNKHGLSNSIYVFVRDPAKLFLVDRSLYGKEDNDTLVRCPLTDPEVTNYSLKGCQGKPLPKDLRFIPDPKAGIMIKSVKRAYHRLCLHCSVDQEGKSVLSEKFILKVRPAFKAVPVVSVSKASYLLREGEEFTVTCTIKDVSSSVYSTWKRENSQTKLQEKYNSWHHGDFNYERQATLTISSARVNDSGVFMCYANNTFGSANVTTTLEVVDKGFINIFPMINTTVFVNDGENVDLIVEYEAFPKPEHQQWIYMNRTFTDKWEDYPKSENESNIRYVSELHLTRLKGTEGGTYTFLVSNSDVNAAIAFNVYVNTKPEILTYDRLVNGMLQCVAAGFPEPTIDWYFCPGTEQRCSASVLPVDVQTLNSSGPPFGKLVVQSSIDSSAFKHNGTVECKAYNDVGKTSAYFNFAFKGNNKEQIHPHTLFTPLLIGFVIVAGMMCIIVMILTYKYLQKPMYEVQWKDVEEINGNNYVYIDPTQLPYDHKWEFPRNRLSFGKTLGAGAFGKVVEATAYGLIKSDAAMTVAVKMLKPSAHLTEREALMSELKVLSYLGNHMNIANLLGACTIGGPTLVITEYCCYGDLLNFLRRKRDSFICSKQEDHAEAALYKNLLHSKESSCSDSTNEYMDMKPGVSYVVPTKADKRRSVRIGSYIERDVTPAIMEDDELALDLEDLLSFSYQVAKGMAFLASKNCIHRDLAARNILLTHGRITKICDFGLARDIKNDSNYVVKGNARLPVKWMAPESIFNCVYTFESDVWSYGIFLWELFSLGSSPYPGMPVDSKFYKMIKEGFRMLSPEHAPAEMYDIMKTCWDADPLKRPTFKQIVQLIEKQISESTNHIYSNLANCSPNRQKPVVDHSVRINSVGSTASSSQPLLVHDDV
Experiment [11] deals with ABL1 (human), P00519 [F317I]. The experiment is described as follows: KINOMEscan competition binding. The note with it: compound 10.0 µM.
The subject of experiment [12] is ABL1 (human), P00519 [H396P]. The experiment is described as follows: KINOMEscan competition binding. The note with it: compound 10.0 µM.
In a further experiment the target is ABL1 (human) (UniProt P00519). Description: KINOMEscan competition binding. The conditions noted are these: compound 10.0 µM.
Experiment [13] concerns ABL1 (human), P00519 [F317L]. Description: KINOMEscan competition binding. The note with it: compound 10.0 µM.

Chain of AURKA (human) (O14965 whole entry, looked up): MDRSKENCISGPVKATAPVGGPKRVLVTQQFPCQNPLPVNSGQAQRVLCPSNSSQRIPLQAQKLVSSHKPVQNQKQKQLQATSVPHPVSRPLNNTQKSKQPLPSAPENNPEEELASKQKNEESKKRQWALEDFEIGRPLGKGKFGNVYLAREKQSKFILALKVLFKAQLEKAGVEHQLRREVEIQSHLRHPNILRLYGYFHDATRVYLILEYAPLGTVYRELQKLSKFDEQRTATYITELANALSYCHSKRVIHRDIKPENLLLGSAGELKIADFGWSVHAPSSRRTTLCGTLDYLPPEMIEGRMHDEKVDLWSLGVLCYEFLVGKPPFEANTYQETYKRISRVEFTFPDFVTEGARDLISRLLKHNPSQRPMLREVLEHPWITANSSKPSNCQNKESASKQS
Chain of AKT2 (human), P31751 [S474D] (P31751 whole entry S474D, looked up): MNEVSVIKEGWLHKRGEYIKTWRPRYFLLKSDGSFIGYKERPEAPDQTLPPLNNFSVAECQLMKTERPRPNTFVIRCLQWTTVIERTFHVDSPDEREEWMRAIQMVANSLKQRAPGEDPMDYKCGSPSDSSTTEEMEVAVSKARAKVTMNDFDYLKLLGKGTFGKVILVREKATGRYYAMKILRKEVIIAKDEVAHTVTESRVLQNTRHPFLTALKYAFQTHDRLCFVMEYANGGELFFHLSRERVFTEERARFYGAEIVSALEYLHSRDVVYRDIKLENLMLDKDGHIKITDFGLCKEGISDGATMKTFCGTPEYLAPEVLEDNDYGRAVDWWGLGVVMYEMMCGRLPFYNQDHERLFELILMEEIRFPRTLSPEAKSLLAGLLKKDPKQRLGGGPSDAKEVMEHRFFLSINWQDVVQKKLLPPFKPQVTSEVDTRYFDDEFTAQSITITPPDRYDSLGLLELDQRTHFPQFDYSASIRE
Chain of TTK (human) (P33981 whole entry, looked up): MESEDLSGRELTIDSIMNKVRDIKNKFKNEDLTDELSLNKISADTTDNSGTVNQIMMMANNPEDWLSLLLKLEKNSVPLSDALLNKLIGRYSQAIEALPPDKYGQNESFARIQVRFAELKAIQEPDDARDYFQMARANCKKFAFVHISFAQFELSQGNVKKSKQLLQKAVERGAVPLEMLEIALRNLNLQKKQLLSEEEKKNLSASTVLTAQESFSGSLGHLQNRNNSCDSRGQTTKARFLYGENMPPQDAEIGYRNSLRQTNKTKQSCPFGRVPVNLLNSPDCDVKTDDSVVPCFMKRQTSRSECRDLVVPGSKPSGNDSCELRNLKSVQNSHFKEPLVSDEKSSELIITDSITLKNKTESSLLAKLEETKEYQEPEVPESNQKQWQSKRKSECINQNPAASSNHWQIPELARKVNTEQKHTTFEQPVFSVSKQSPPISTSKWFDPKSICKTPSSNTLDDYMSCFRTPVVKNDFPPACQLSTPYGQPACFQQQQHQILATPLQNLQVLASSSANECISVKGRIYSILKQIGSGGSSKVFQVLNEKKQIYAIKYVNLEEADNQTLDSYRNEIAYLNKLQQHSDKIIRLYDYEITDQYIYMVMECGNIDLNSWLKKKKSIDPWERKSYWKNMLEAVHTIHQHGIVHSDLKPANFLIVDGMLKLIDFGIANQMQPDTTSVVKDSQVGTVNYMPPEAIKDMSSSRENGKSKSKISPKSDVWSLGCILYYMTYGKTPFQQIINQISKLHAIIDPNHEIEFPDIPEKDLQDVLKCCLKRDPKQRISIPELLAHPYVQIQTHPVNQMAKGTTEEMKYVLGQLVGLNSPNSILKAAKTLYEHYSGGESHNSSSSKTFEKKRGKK
Chain of MYLK3 (human) (Q32MK0 whole entry, looked up): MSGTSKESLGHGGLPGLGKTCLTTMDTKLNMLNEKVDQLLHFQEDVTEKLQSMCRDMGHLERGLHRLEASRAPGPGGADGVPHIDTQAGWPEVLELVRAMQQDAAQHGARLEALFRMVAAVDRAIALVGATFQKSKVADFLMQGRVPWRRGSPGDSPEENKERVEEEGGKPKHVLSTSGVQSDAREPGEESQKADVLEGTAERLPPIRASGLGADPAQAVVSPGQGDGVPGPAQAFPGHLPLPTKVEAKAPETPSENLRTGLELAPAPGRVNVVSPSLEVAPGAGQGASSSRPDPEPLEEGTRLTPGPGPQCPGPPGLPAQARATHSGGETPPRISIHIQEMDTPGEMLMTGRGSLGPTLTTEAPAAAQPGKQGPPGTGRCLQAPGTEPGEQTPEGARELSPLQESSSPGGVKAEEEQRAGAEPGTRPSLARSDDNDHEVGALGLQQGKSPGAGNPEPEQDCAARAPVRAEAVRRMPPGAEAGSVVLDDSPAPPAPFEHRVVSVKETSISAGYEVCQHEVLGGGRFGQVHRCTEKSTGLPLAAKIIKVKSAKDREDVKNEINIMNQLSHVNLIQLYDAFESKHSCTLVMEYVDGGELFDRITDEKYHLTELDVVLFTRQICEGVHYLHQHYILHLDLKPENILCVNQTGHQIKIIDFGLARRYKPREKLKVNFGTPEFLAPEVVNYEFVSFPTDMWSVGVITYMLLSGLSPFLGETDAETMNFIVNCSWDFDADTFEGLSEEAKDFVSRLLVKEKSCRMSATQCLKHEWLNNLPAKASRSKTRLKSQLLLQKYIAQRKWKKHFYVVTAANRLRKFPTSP
Chain of PIK3CA (human) (P42336 whole entry, looked up): as the sequence (P42336 whole entry H1047Y, looked up) above, with Y1047H counted along it

As a reminder, the IC50 is the concentration that gives 50% inhibition. Turning to `COC(=O)Nc1ccc(-c2nc(N3CCOCC3)c3cnn(C4CCN(C(=O)OC)CC4)c3n2)cc1`, on MTOR (human), the concentration for half-maximal inhibition (IC50) stood at 15.8 nM. The per cent of control on AURKA (human) (compound 1.0 µM) was found to be 90%; on AURKA (human) (compound 10.0 µM), 63%; in experiment [1] (compound 1.0 µM) it was 102%; in experiment [1] (compound 10.0 µM), 89%; on TTK (human) (compound 1.0 µM) it was 91%; at TTK (human) (compound 10.0 µM), 93%. Also, the kinase still bound, per cent of control came to 100% in experiment [2]; 100% in experiment [3]; 78% on PIK3CG (human); 90% in experiment [4]; 100% on MARK2 (human); 7.8% in experiment [5]. Also, the kinase still bound, per cent of control was found to be 5.4% at PIK3CA (human); 100% in experiment [6]; 95% in [7]; 100% in [8]; 86% in experiment [9]; 100% in experiment [10].
On to `CCC(=O)N1CCN(c2ccc(-n3c(=O)ccc4cnc5ccc(-c6cnc7ccccc7c6)cc5c43)cc2C(F)(F)F)CC1`, for which the per cent of control at AURKA (human) (compound 1.0 µM) was found to be 88%; on AURKA (human) (compound 10.0 µM) it was 68%; in experiment [1] (compound 1.0 µM) it was 95%; in [1] (compound 10.0 µM) it was 84%; on TTK (human) (compound 1.0 µM), 79%; at TTK (human) (compound 10.0 µM), 71%. For the same compound, the kinase still bound, per cent of control in experiment [11] was found to be 100%; in experiment [12], 68%; at ABL1 (human) it was 60%; in experiment [13], 100%.
As for `COc1ccc(-c2ccc3c(N4CCOCC4)nc(N4C[C@@H](C)O[C@@H](C)C4)nc3n2)cc1CO`, the values for the per cent of control at MYLK3 (human) (compound 1.0 µM) and on MYLK3 (human) (compound 10.0 µM) were 82% and 104%, respectively. Also, the kinase still bound, per cent of control in experiment [2] turned out to be 100%; in [3], 100%; at PIK3CG (human), 23%; in experiment [4], 100%; at MARK2 (human), 94%; in [5], 3.2%. Also, the kinase still bound, per cent of control at PIK3CA (human) was 2.5%; in [6], 100%; in experiment [7], 100%; in [8], 83%; in experiment [9] it was 100%; in experiment [10], 100%.

For the origin of these results see the kinase profiling compilation of Christmann-Franck et al. (2016).
